Assay results taken from patent US20080051387A1, “TETRAHYDROPYRIDO[3,4-D]PYRIMIDINES AND RELATED ANALOGUES” (priority 2006, published 2008).

Target: T1, chimeric human H3 receptor (Homo sapiens, UniProt Q9Y5N1)
T1 construct: rat Galpha-i2 (Gnai2, rat); made in house; host or cells: Sf9 insect cells (baculovirus); P2 membranes
Experiment: Chimeric human H3 receptor screening GTP binding assay (inhibition of histamine-stimulated GTP-gamma35S binding, Example 8)
Type: biochemical
Details: 1 h; assay described in Example 8; symbol "!" in column headed Ki; read-out: Ki ("!": percent inhibition of agonist-induced GTP-gammaS binding to H3)
Summary of the method: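 Compound tested at 4 μM against 1 μM histamine stimulation; 125 pM GTP-gamma35S binding measured by filtration and scintillation after 60 min at room temperature. Membranes from Sf9 cells expressing chimeric human H3 plus G-protein subunits, in Tris pH 7.4/NaCl/MgCl2/GDP buffer; values are % inhibition after nonspecific subtraction.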

T1 sequence (Q9Y5N1 with tags, fused parts or gaps): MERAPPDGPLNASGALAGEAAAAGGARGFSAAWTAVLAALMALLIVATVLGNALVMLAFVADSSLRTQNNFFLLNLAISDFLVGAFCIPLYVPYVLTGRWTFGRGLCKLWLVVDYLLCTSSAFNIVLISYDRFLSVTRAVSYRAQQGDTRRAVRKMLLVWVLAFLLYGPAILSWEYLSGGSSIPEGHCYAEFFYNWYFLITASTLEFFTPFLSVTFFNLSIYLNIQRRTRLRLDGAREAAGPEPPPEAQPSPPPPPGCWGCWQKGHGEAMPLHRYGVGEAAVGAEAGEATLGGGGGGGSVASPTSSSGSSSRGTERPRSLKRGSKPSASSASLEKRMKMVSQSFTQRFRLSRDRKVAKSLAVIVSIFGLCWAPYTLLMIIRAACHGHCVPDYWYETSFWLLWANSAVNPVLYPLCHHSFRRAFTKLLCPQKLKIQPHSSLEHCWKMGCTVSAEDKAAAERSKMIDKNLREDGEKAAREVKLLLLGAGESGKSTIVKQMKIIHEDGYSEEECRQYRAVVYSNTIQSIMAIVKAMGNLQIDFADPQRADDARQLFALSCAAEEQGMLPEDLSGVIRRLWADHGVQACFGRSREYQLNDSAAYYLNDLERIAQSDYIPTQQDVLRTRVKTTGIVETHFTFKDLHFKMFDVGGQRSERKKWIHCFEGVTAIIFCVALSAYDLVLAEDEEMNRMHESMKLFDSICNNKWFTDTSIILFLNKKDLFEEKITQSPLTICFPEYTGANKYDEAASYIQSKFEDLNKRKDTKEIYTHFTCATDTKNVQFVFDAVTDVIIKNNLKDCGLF

| inhibition at 4 µM | Structure (SMILES) |
| --- | --- |
| ≥ 90% | O=C(/C=C/c1ccc(OCc2ccc(F)cc2)cc1)N1CCc2cnc(N3CCN(C4CCC4)CC3)nc2CC1 [Compound 562, 2-(4-cyclobutylpiperazin-1-yl)-7-[(2E)-3-{4-[(4-fluorobenzyl)oxy]phenyl}prop-2-enoyl]-6,7,8,9-tetrahydro-5H-pyrimido[4,5-d]azepine] |
| ≥ 90% | Cc1cccc(/C=C/C(=O)N2CCc3cnc(N4CCN(C5CCC5)CC4)nc3CC2)c1 [Compound 563, 2-(4-cyclobutylpiperazin-1-yl)-7-[(2E)-3-(3-methylphenyl)prop-2-enoyl]-6,7,8,9-tetrahydro-5H-pyrimido[4,5-d]azepine] |
| ≥ 90% | COc1cccc(/C=C/C(=O)N2CCc3cnc(N4CCN(C5CCC5)CC4)nc3CC2)c1 [Compound 564, 2-(4-cyclobutylpiperazin-1-yl)-7-[(2E)-3-(3-methoxyphenyl)prop-2-enoyl]-6,7,8,9-tetrahydro-5H-pyrimido[4,5-d]azepine] |
| ≥ 90% | COc1cc(/C=C/C(=O)N2CCc3cnc(N4CCN(C5CCC5)CC4)nc3CC2)cc(OC)c1 [Compound 565, 2-(4-cyclobutylpiperazin-1-yl)-7-[(2E)-3-(3,5-dimethoxyphenyl)prop-2-enoyl]-6,7,8,9-tetrahydro-5H-pyrimido[4,5-d]azepine] |
| ≥ 90% | COc1cc(/C=C/C(=O)N2CCc3cnc(N4CCN(C5CCC5)CC4)nc3CC2)cc(OC)c1OC [Compound 566, 2-(4-cyclobutylpiperazin-1-yl)-7-[(2E)-3-(3,4,5-trimethoxyphenyl)prop-2-enoyl]-6,7,8,9-tetrahydro-5H-pyrimido[4,5-d]azepine] |
| ≥ 90% | O=C(/C=C/c1ccc2c(c1)OCO2)N1CCc2cnc(N3CCN(C4CCC4)CC3)nc2CC1 [Compound 567, 7-[(2E)-3-(1,3-benzodioxol-5-yl)prop-2-enoyl]-2-(4-cyclobutylpiperazin-1-yl)-6,7,8,9-tetrahydro-5H-pyrimido[4,5-d]azepine] |
| ≥ 90% | COc1ccccc1/C=C/C(=O)N1CCc2cnc(N3CCN(C4CCC4)CC3)nc2CC1 [Compound 568, 2-(4-cyclobutylpiperazin-1-yl)-7-[(2E)-3-(2-methoxyphenyl)prop-2-enoyl]-6,7,8,9-tetrahydro-5H-pyrimido[4,5-d]azepine] |
| ≥ 90% | CCOc1ccccc1/C=C/C(=O)N1CCc2cnc(N3CCN(C4CCC4)CC3)nc2CC1 [Compound 569, 2-(4-cyclobutylpiperazin-1-yl)-7-[(2E)-3-(2-ethoxyphenyl)prop-2-enoyl]-6,7,8,9-tetrahydro-5H-pyrimido[4,5-d]azepine] |
| ≥ 90% | COc1ccc(/C=C/C(=O)N2CCc3cnc(N4CCN(C5CCC5)CC4)nc3CC2)c(OC)c1 [Compound 570, 2-(4-cyclobutylpiperazin-1-yl)-7-[(2E)-3-(2,4-dimethoxyphenyl)prop-2-enoyl]-6,7,8,9-tetrahydro-5H-pyrimido[4,5-d]azepine] |
| ≥ 90% | COc1ccc(/C=C/C(=O)N2CCc3cnc(N4CCN(C5CCC5)CC4)nc3CC2)c(OC)c1OC [Compound 571, 2-(4-cyclobutylpiperazin-1-yl)-7-[(2E)-3-(2,3,4-trimethoxyphenyl)prop-2-enoyl]-6,7,8,9-tetrahydro-5H-pyrimido[4,5-d]azepine] |
| ≥ 90% | Cc1ccccc1/C=C/C(=O)N1CCc2cnc(N3CCN(C4CCC4)CC3)nc2CC1 [Compound 572, 2-(4-cyclobutylpiperazin-1-yl)-7-[(2E)-3-(2-methylphenyl)prop-2-enoyl]-6,7,8,9-tetrahydro-5H-pyrimido[4,5-d]azepine] |
| ≥ 90% | COc1cccc(/C=C/C(=O)N2CCc3cnc(N4CCN(C5CCC5)CC4)nc3CC2)c1OC [Compound 573, 2-(4-cyclobutylpiperazin-1-yl)-7-[(2E)-3-(2,3-dimethoxyphenyl)prop-2-enoyl]-6,7,8,9-tetrahydro-5H-pyrimido[4,5-d]azepine] |
| ≥ 90% | COc1ccc(OC)c(/C=C/C(=O)N2CCc3cnc(N4CCN(C5CCC5)CC4)nc3CC2)c1 [Compound 574, 2-(4-cyclobutylpiperazin-1-yl)-7-[(2E)-3-(2,5-dimethoxyphenyl)prop-2-enoyl]-6,7,8,9-tetrahydro-5H-pyrimido[4,5-d]azepine] |
| ≥ 90% | COc1cc(OC)c(OC)cc1/C=C/C(=O)N1CCc2cnc(N3CCN(C4CCC4)CC3)nc2CC1 [Compound 575, 2-(4-cyclobutylpiperazin-1-yl)-7-[(2E)-3-(2,4,5-trimethoxyphenyl)prop-2-enoyl]-6,7,8,9-tetrahydro-5H-pyrimido[4,5-d]azepine] |
| ≥ 90% | COc1ccc(Br)cc1/C=C/C(=O)N1CCc2cnc(N3CCN(C4CCC4)CC3)nc2CC1 [Compound 576, 7-[(2E)-3-(5-bromo-2-methoxyphenyl)prop-2-enoyl]-2-(4-cyclobutylpiperazin-1-yl)-6,7,8,9-tetrahydro-5H-pyrimido[4,5-d]azepine] |
| ≥ 90% | Cc1ccc(C)c(/C=C/C(=O)N2CCc3cnc(N4CCN(C5CCC5)CC4)nc3CC2)c1 [Compound 577, 2-(4-cyclobutylpiperazin-1-yl)-7-[(2E)-3-(2,5-dimethylphenyl)prop-2-enoyl]-6,7,8,9-tetrahydro-5H-pyrimido[4,5-d]azepine] |
| ≥ 90% | O=C(/C=C/c1cccc2ccccc12)N1CCc2cnc(N3CCN(C4CCC4)CC3)nc2CC1 [Compound 578, 2-(4-cyclobutylpiperazin-1-yl)-7-[(2E)-3-(1-naphthyl)prop-2-enoyl]-6,7,8,9-tetrahydro-5H-pyrimido[4,5-d]azepine] |
| ≥ 90% | O=C(/C=C/c1ccccc1Cl)N1CCc2cnc(N3CCN(C4CCC4)CC3)nc2CC1 [Compound 579, 7-[(2E)-3-(2-chlorophenyl)prop-2-enoyl]-2-(4-cyclobutylpiperazin-1-yl)-6,7,8,9-tetrahydro-5H-pyrimido[4,5-d]azepine] |
| ≥ 90% | O=C(/C=C/c1ccccc1C(F)(F)F)N1CCc2cnc(N3CCN(C4CCC4)CC3)nc2CC1 [Compound 580, 2-(4-cyclobutylpiperazin-1-yl)-7-[(2E)-3-[2-(trifluoromethyl)phenyl]prop-2-enoyl]-6,7,8,9-tetrahydro-5H-pyrimido[4,5-d]azepine] |

Same assay, conditions: 1 h; assay of Example 8; symbol "!" in column headed Ki; read-out: percent inhibition of agonist-induced GTP-gammaS binding to H3

| inhibition at 4 µM | Structure (SMILES) |
| --- | --- |
| ≥ 90% | O=C(/C=C/c1ccc(Cl)cc1Cl)N1CCc2cnc(N3CCN(C4CCC4)CC3)nc2CC1 [Compound 581, 2-(4-cyclobutylpiperazin-1-yl)-7-[(2E)-3-(2,4-dichlorophenyl)prop-2-enoyl]-6,7,8,9-tetrahydro-5H-pyrimido[4,5-d]azepine] |
| ≥ 90% | O=C(/C=C/c1ccccc1Br)N1CCc2cnc(N3CCN(C4CCC4)CC3)nc2CC1 [Compound 582, 7-[(2E)-3-(2-bromophenyl)prop-2-enoyl]-2-(4-cyclobutylpiperazin-1-yl)-6,7,8,9-tetrahydro-5H-pyrimido[4,5-d]azepine] |
| ≥ 90% | O=C(/C=C/c1c(Cl)cccc1Cl)N1CCc2cnc(N3CCN(C4CCC4)CC3)nc2CC1 [Compound 583, 2-(4-cyclobutylpiperazin-1-yl)-7-[(2E)-3-(2,6-dichlorophenyl)prop-2-enoyl]-6,7,8,9-tetrahydro-5H-pyrimido[4,5-d]azepine] |
| ≥ 90% | O=C(/C=C/c1ccc(F)cc1Cl)N1CCc2cnc(N3CCN(C4CCC4)CC3)nc2CC1 [Compound 584, 7-[(2E)-3-(2-chloro-4-fluorophenyl)prop-2-enoyl]-2-(4-cyclobutylpiperazin-1-yl)-6,7,8,9-tetrahydro-5H-pyrimido[4,5-d]azepine] |
| ≥ 90% | O=C(/C=C/c1c(F)cccc1Cl)N1CCc2cnc(N3CCN(C4CCC4)CC3)nc2CC1 [Compound 585, 7-[(2E)-3-(2-chloro-6-fluorophenyl)prop-2-enoyl]-2-(4-cyclobutylpiperazin-1-yl)-6,7,8,9-tetrahydro-5H-pyrimido[4,5-d]azepine] |
| ≥ 90% | COc1ccc(/C=C/C(=O)N2CCc3cnc(N4CCN(C5CCC5)CC4)nc3CC2)c(Cl)c1OC [Compound 586, 7-[(2E)-3-(2-chloro-3,4-dimethoxyphenyl)prop-2-enoyl]-2-(4-cyclobutylpiperazin-1-yl)-6,7,8,9-tetrahydro-5H-pyrimido[4,5-d]azepine] |
| ≥ 90% | CCOc1ccc(Br)cc1/C=C/C(=O)N1CCc2cnc(N3CCN(C4CCC4)CC3)nc2CC1 [Compound 587, 7-[(2E)-3-(5-bromo-2-ethoxyphenyl)prop-2-enoyl]-2-(4-cyclobutylpiperazin-1-yl)-6,7,8,9-tetrahydro-5H-pyrimido[4,5-d]azepine] |
| ≥ 90% | COc1cc(Br)c(/C=C/C(=O)N2CCc3cnc(N4CCN(C5CCC5)CC4)nc3CC2)cc1OC [Compound 588, 7-[(2E)-3-(2-bromo-4,5-dimethoxyphenyl)prop-2-enoyl]-2-(4-cyclobutylpiperazin-1-yl)-6,7,8,9-tetrahydro-5H-pyrimido[4,5-d]azepine] |
| ≥ 90% | O=C(/C=C/c1cc2c(cc1Br)OCO2)N1CCc2cnc(N3CCN(C4CCC4)CC3)nc2CC1 [Compound 589, 7-[(2E)-3-(6-bromo-1,3-benzodioxol-5-yl)prop-2-enoyl]-2-(4-cyclobutylpiperazin-1-yl)-6,7,8,9-tetrahydro-5H-pyrimido[4,5-d]azepine] |

Same assay, conditions: symbol ! in Ki; test compound 4 μM, 1 μM histamine; read-out: percent inhibition of agonist-induced GTP-gammaS binding to H3

| inhibition at 4 µM | Structure (SMILES) |
| --- | --- |
| ≥ 90% | Fc1ccccc1CN1CCc2nc(N3CCN(C4CCC4)CC3)ncc2C1 [Compound 611, 2-(4-cyclobutylpiperazin-1-yl)-6-(2-fluorobenzyl)-5,6,7,8-tetrahydropyrido[4,3-d]pyrimidine] |
| ≥ 90% | Fc1cccc(CN2CCc3nc(N4CCN(C5CCC5)CC4)ncc3C2)c1 [Compound 612, 2-(4-cyclobutylpiperazin-1-yl)-6-(3-fluorobenzyl)-5,6,7,8-tetrahydropyrido[4,3-d]pyrimidine] |
